Publication PMC4176318 (ACS Chemical Neuroscience, 2014)

Test system: C57Bl/6J mice
Assay: Tail suspension test
Format: in vivo, mouse
Conditions: 10 mg/kg i.p., 30 min prior to testing, 6 min trial; saline 143.7 ± 3.3 s

| SMILES | immobility in TST |
| --- | --- |
| COCCCC/C(=N\OCCN)c1ccc(C(F)(F)F)cc1 [fluvoxamine] | 59.0 ± 12.5 s |
| CN(C)CCCC1(c2ccc(F)cc2)OCc2cc(C#N)ccc21 (centres unmarked) [citalopram] | 29.7 ± 14.5 s |
